# Like-named read-outs stand apart in the source and are kept apart here.
# How the values were obtained:
# [1] = tested on: pigweed (AMARE, Amaranthus retroflexus); test: Greenhouse postemergence trial, % visual injury; type: in vivo
# [2] = tested on: winter rape (BRSNW, Brassica napus); test: Greenhouse postemergence trial, % visual injury; type: in vivo
# [3] = tested on: common lambsquarters (CHEAL, Chenopodium album L.); test: Greenhouse postemergence trial, % visual injury; type: in vivo; conditions: Chenopodium album, post-emergence, read-out: % visual injury Obs
# [4] = tested on: kochia (KCHSC, Kochia scoparia); test: Greenhouse postemergence trial, % visual injury; type: in vivo
# Procedure: Following the protocol in Example 1, compound 1 and compound 2 were combined with 2,4 D EHE (EC) and applied to kochia (KCHSC, Kochia scoparia) and the phytotoxicity of the herbicidal compositions was measured.
# Following the protocol in Example 1, compound 1 (EC) and Compound 2 (SC) were combined with diflufenzopyr and applied to kochia (Kochia scoparia, KCHSC) and the phytotoxicity of the herbicidal composition was measured.
# [5] = tested on: velvetleaf (Abutilon theophrasti, ABUTH); test: Greenhouse postemergence trial, % visual injury; type: in vivo
# [6] = tested on: nutsedge (Cyperus esculentus, CYPES); test: Greenhouse postemergence trial, % visual injury; type: in vivo; conditions: CYPES, 70 g ae/ha
# [7] = tested on: sunflower (Helianthus annus, HELAN); test: Greenhouse postemergence trial, % visual injury; type: in vivo
# [8] = tested on: wild buckwheat (Polygonum convolvulus, POLCO); test: Greenhouse postemergence trial, % visual injury; type: in vivo
# [9] = tested on: Russian thistle (Salsola iberica, SASKR); test: Greenhouse postemergence trial, % visual injury; type: in vivo; conditions: fluroxypyr-MHE 70 g ae/ha
# [10] = tested on: wild mustard (Sinapis arvensis, SINAR); test: Greenhouse postemergence trial, % visual injury; type: in vivo; conditions: fluroxypyr-MHE 70 g ae/ha
# [11] = tested on: blackgrass (Alopecurus myosuroides, ALOMY); test: Greenhouse postemergence trial, % visual injury; type: in vivo; conditions: 70 g ae/ha
# [12] = tested on: wild oat (Avena fatua, VEFA); test: Greenhouse postemergence trial, % visual injury; type: in vivo; conditions: AVEFA
# [13] = tested on: large crabgrass (Digitaria sanguinalis, DIGSA); test: Greenhouse postemergence trial, % visual injury; type: in vivo; conditions: Digitaria sanguinalis, post-emergence, read-out: % visual injury, Obs
# [14] = tested on: barnyardgrass (Echinochloa crus-galli, ECHCG); test: Greenhouse postemergence trial, % visual injury; type: in vivo; conditions: fluroxypyr-MHE 100 g ae/ha
# [15] = tested on: kochia (KCHSC, Kochia scoparia); test: Greenhouse postemergence trial, % visual injury; type: in vivo; remark: listed apart in the source
# [16] = tested on: Canadian thistle (CIRAR, Cirsium arvense); test: Greenhouse postemergence trial, % visual injury; conditions: Cirsium arvense, post-emergence;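 also: plants sprayed at second to third true leaf stage, injury scored visually 20-22 d later against solvent-blank sprayed controls, 0 meaning no injury and 100 complete kill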
# [17] = tested on: spring rape (Brassica napus, BRSNN); test: Greenhouse postemergence trial, % visual injury; conditions: Brassica napus, post-emergence
# [18] = tested on: poinsettia (Euphorbia heterophylla, EPHHL); test: Greenhouse postemergence trial, % visual injury; conditions: Euphorbia heterophylla, post-emergence, read-out: % visual injury, Obs
# [19] = tested on: wild pansy (Viola tricolor, VIOTR); test: Greenhouse postemergence trial, % visual injury; conditions: for % visual injury, Obs: VIOTR
# [20] = tested on: ivyleaf morningglory (Ipomoea hederacea, IPOHE); test: Greenhouse postemergence trial, % visual injury
# spring barley (HORVS) = test: Greenhouse postemergence trial, crop phytotoxicity (% visual injury)
# winter wheat (TRZAW) [21] = test: as above; conditions: for % visual injury, Obs: TRZAW
# maize (ZEAMX) = test: as above; conditions: for % visual injury, Obs: ZEAMX
# common rice (ORYSA) = test: as above
# [22] = tested on: grain sorghum (Sorghum vulgare, SORVU); test: Greenhouse postemergence trial, % visual injury; type: in vivo
# [23] = tested on: common chickweed (Stellaria media, STEME); test: Greenhouse postemergence trial, % visual injury; type: in vivo; conditions: aminopyralid-TIPA 5 g ae/ha
# [24] = tested on: ivyleaved speedwell (Veronica hederifolia, VERHE); test: Greenhouse postemergence trial, % visual injury; type: in vivo; conditions: aminocyclopyrachlor 100 g ae/ha
# [25] = tested on: kochia (KCHSC, Kochia scoparia); test: Patio postemergence trial, % visual injury; type: in vivo; conditions: 20-22 d
# Procedure: (§1) The plants were grown for 7-36 days (d) on a fenced, open-air patio. Nutrients and water were added on a regular basis.
# (§2) Temperatures and photoperiods were dependent on the natural weather conditions during the trials. Weather conditions during trials were conducive for plant growth and development.
# [26] = tested on: pigweed (AMARE, Amaranthus retroflexus); test: Patio postemergence trial, % visual injury; type: in vivo; conditions: 20-22 d
# Procedure: as §1, §2
# winter wheat (TRZAW) [27] = test: Patio postemergence trial, crop phytotoxicity (% visual injury); type: in vivo, Triticum aestivum; conditions: 20-22 d
# Procedure: as §1, §2
# [28] = tested on: CIRAR = Cirsium arvense (Canadian thistle); test: Small plot field trial (Canada), % visual injury; type: in vivo; conditions: 35 g ae/ha alone, 46-64 DAA
# Procedure: (§3) Trials were established as randomized complete blocks with 3-4 replicates. Individual plots were 2-3 meters (m) wide and 8-10 m long. Applications were made with backpack or tractor-mounted sprayers delivering a spray volume output of 100 liters per hectare (L/ha) using pressurized carbon dioxide (CO2) as a propellant. Compound 7 was combined with 2,4 D EHE (660 g ae/L EC formulation) and applied to spring wheat (TRZAS), and the phytotoxicity of the herbicidal compositions was measured. In addition, the efficacy of the herbicidal composition on Canadian thistle ([…], Cirsium arvense), […] scoparia), mallow ([…] pusilla), wild buckwheat (POLCO, Polygonum convolvulus), and lady's thumb (POLPE, Polygonum persicaria) was evaluated.
# [29] = tested on: MALPU = Malva pusilla (mallow); test: Small plot field trial (Canada), % visual injury; type: in vivo; conditions: 35 g ae/ha alone, 26-33 DAA
# Procedure: as §3
# [30] = tested on: kochia (KCHSC, Kochia scoparia); test: Small plot field trial (Canada), % visual injury; type: in vivo; conditions: 35 g ae/ha alone, 46-64 DAA
# Procedure: as §3
# [31] = tested on: lady's thumb (POLPE, Polygonum persicaria); test: Small plot field trial (Canada), % visual injury; type: in vivo; conditions: 35 g ae/ha alone, 14-16 DAA
# Procedure: as §3
# [32] = tested on: wild buckwheat (POLCO, Polygonum convolvulus); test: Small plot field trial (Canada), % visual injury; type: in vivo; conditions: 35 g ae/ha alone, 15 DAA
# Procedure: as §3
# spring wheat (TRZAS) = test: Small plot field trial (Canada), crop phytotoxicity (% visual injury); type: in vivo, Triticum aestivum; conditions: 35 g ae/ha alone
# Excerpt: Small plot field trials were established in Canada to evaluate efficacy and crop safety of Compound 7 with 2,4-D EHE. Trials were established as randomized complete blocks with 3-4 replicates. Individual plots were 2-3 meters (m) wide and 8-10 m long. Applications were made with backpack or tractor-mounted sprayers delivering a spray volume output of 100 liters per hectare (L/ha) using pressurized carbon dioxide (CO2) as a propellant. Compound 7 was combined with 2,4 D EHE (660 g ae/L EC formulation) and applied to spring wheat (TRZAS), and the phytotoxicity of the herbicidal compositions was measured. In addition, the efficacy of the herbicidal composition on Canadian thistle ([…], Cirsium arvense), kochia (KCHSC, Kochia scoparia), mallow (MALPU, Marva pusilla), wild buckwheat (POLCO, Polygonum convolvulus), and lady's thumb (POLPE, Polygonum persicaria) was evaluated.
# winter wheat (TRZAW) [33] = conditions: Triticum aestivum (winter wheat), in vivo
# [34] = read-out: % visual injury (Obs)
structure (smiles),measurement,setting,value
"CCCCCCC(C)OC(=O)COc1nc(F)c(Cl)c(N)c1Cl (stereo not shown) [Fluroxypyr-MHE, fluroxypyr-meptyl, reference compound]","% visual injury, Obs","[1]; AMARE, 70 g ae/ha",70%
same,% visual injury (Obs),[1]; fluroxypyr-MHE 70 g ae/ha,50%
same,% visual injury (Obs),[2]; fluroxypyr-MHE 70 g ae/ha,95%
same,pest or weed control at 70 g/ha,[3],10%
same,% visual injury (Obs),[4]; fluroxypyr-MHE 100 g ae/ha,65%
same,pest or weed control at 70 g/ha,"[5]; Abutilon theophrasti, post-emergence, read-out: % visual injury, Obs",40%
same,% visual injury (Obs),[5]; fluroxypyr-MHE 100 g ae/ha,70%
same,"% visual injury, Obs",[6],0%
same,% visual injury (Obs),[7]; fluroxypyr-MHE 100 g ae/ha,80%
same,% visual injury (Obs),[8]; fluroxypyr-MHE 70 g ae/ha,75%
same,% visual injury (Obs),[9],95%
same,% visual injury (Obs),[10],85%
same,"% visual injury, Obs",[11],0%
same,"% visual injury, Obs",[12]; 70 g ae/ha,0%
same,pest or weed control at 70 g/ha,[13],33%
same,% visual injury (Obs),[14],0%
same,% visual injury (Obs),[15]; fluroxypyr-MHE 70 g ae/ha,93%
same,pest or weed control at 100 g/ha,"[16]; read-out: % visual injury (Obs), fluroxypyr-MHE 100 g ae/ha",60%
same,pest or weed control at 70 g/ha,"[16]; read-out: % visual injury Obs, 70 g ae/ha alone, 20-22 d",10%
same,plant injury at 100 g/ha,[17]; [34],85%
same,plant injury at 70 g/ha,"[17]; read-out: % visual injury, Obs",15%
same,pest or weed control at 70 g/ha,[18],18%
same,"% visual injury, Obs",[19]; 70 g ae/ha,80%
same,% visual injury (Obs),[19]; fluroxypyr-MHE 100 g ae/ha,80%
same,pest or weed control at 70 g/ha,"[20]; Ipomoea, post-emergence, read-out: % visual injury, Obs",80%
same,% visual injury Obs,"spring barley (HORVS); crop, 70 g ae/ha alone, 20-22 d",20%
same,% visual injury (Obs),spring barley (HORVS); fluroxypyr-MHE 70 g ae/ha,0%
same,"% visual injury, Obs",winter wheat (TRZAW) [21]; 70 g ae/ha,0%
same,% visual injury (Obs),winter wheat (TRZAW) [21]; fluroxypyr-MHE 70 g ae/ha,0%
same,% visual injury (Obs),winter wheat (TRZAW) [21]; fluroxypyr-MHE 100 g ae/ha,0%
same,"% visual injury, Obs",maize (ZEAMX); 70 g ae/ha,0%
same,% visual injury (Obs),maize (ZEAMX); fluroxypyr-MHE 100 g ae/ha,0%
same,% visual injury (Obs),common rice (ORYSA); fluroxypyr-MHE 100 g ae/ha,0%
"Nc1cc(Cl)nc(C(=O)O)c1Cl [aminopyralid-TIPA, aminopyralid-triisopropanolammonium, reference compound]",% visual injury (Obs),[7]; aminopyralid-TIPA 5 g ae/ha,60%
same,% visual injury (Obs),[8]; aminopyralid-TIPA 5 g ae/ha,65%
same,"% visual injury, Obs","[22]; SORVU, 5 g ae/ha",5%
same,% visual injury (Obs),[22]; aminopyralid-TIPA 5 g ae/ha,0%
same,% visual injury (Obs),[23],60%
same,"% visual injury, Obs",[12]; 5 g ae/ha,0%
same,pest or weed control at 5 g/ha,[13],5%
same,% visual injury (Obs),[15]; aminopyralid-TIPA 5 g ae/ha,10%
same,pest or weed control at 5 g/ha,"[16]; read-out: % visual injury (Obs), aminopyralid-TIPA 5 g ae/ha",60%
same,plant injury at 5 g/ha,[17]; [34],10%
same,pest or weed control at 5 g/ha,[18],18%
same,"% visual injury, Obs",[19]; 5 g ae/ha,48%
same,% visual injury (Obs),[19]; aminopyralid-TIPA 5 g ae/ha,10%
same,% visual injury (Obs),[20]; aminopyralid-TIPA 5 g ae/ha,60%
same,"% visual injury, Obs",winter wheat (TRZAW) [21]; 5 g ae/ha,0%
same,% visual injury (Obs),winter wheat (TRZAW) [21]; aminopyralid-TIPA 5 g ae/ha,0%
same,"% visual injury, Obs",maize (ZEAMX); 5 g ae/ha,3%
same,% visual injury (Obs),maize (ZEAMX); aminopyralid-TIPA 5 g ae/ha,0%
same,% visual injury (Obs),common rice (ORYSA); aminopyralid-TIPA 5 g ae/ha,0%
"Nc1nc(C2CC2)nc(C(=O)O)c1Cl [aminocyclopyrachlor, reference compound]",% visual injury (Obs),[24],75%
Nc1c(F)c(-c2ccc3cc[nH]c3c2F)nc(C(=O)[O-])c1Cl.[K+] [compound 7],pest or weed control at 8.75 g/ha,"[1]; Amaranthus retroflexus, post-emergence, read-out: % visual injury Obs",70%
same,% visual injury Obs,"[2]; 8.75 g ae/ha alone, 20-22 d",58%
same,pest or weed control at 5 g/ha,[3],80%
same,pest or weed control at 8.75 g/ha,[3],60%
same,pest or weed control at 10 g/ha,[3],100%
same,% visual injury Obs,"[4]; 8.75 g ae/ha alone, 20-22 d",55%
same,% visual injury Obs,[25]; 8.75 g ae/ha alone,5%
same,% visual injury Obs,[25]; 17.5 g ae/ha alone,0%
same,% visual injury Obs,[26]; 8.75 g ae/ha alone,30%
same,% visual injury Obs,[26]; 17.5 g ae/ha alone,40%
same,% visual injury Obs,winter wheat (TRZAW) [27]; 8.75 g ae/ha alone,5%
same,% visual injury Obs,winter wheat (TRZAW) [27]; 17.5 g ae/ha alone,0%
same,% visual injury Obs,[28],20%
same,% visual injury Obs,[29],15%
same,% visual injury Obs,[30],62%
same,% visual injury Obs,[31],20%
same,% visual injury Obs,[32],50%
same,% visual injury Obs,spring wheat (TRZAS); 6-8 DAA,3%
same,% visual injury Obs,spring wheat (TRZAS); 14-16 DAA,3%
same,% visual injury Obs,winter wheat (TRZAW) [33],0%
same,pest or weed control at 5 g/ha,"[16]; read-out: % visual injury Obs, 5 g ae/ha alone, 20-22 d",50%
same,pest or weed control at 8.75 g/ha,"[16]; read-out: % visual injury Obs, 8.75 g ae/ha alone, 20-22 d",25%
same,pest or weed control at 10 g/ha,"[16]; read-out: % visual injury Obs, 10 g ae/ha alone, 20-22 d",65%
